In patent publication US7579356B2, “Thia-tetraazaacenaphthylene kinase inhibitors” (Janssen Pharmaceutica NV, priority 2005, dated 2009):

What was measured:
Format in all cases: biochemical
EGFR = biological target: T1, EGFR (Homo sapiens, UniProt P00533); assay: EGFR Kinase Assay; conditions: for IC50: GST-EGFR, ATP 5 μM; for inhibition at 2 µM: test concentration of 2 μM, compounds without an IC50, read-out: EGFR inhibition in percent
T1 construct: The intracellular portion of EGFR started at nucleotide 2189 (corresponding to amino acid 667) and ended at the termination codon; made in house; host or cells: Sf9 insect cells (baculovirus)
Method in brief: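 Potency came from triplicate 16-point half-log titrations starting at 200 uM, with IC50 fitted from % inhibition against log concentration, or % inhibition at 2 μM otherwise. Reaction: Sf9-made GST–EGFR cytoplasmic region (aa 667 onward), biotin-polyGluTyr, 5 μM ATP with 33P tracer, pH 8.0 Tris/Mg/vanadate/DTT, 30 °C for 1 h; captured on streptavidin Flashplates and counted.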

HER-2 = biological target: T2, HER-2 (Homo sapiens, UniProt P04626); assay: HER-2 Kinase Assay; conditions: for IC50: value in parentheses; for inhibition at 1 µM: test concentration of 1 μM
T2 construct: His6 with thrombin site (N); purchased Proqinase (Freiburg, Germany)
Method in brief: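 Read-out was scintillation counting of 33P incorporated into biotinylated polyGluTyr captured on streptavidin plates. Reactions ran 1 h at 30 °C with GST-fused HER-2 residues 679–1255, 1 μM ATP, Mn2+ and Mg2+ at pH 7.5; data given as percent inhibition at 1 μM, with IC50 where determined.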

c-Src kinase (human) = biological target: T3, c-Src kinase (human) (Homo sapiens, UniProt P12931); assay: c-Src Kinase Assay; conditions: test concentration of 2 μM; multiple values are separate assay results
T3 construct: purchased Upstate Biotechnology, Lake Placid, N.Y
Method: A mixture of a 10× kinase buffer (80 mM MOPS at pH 7.0, 2 mM EDTA and 100 mM Magnesium Chloride), ATP (5 μM final from a 10 mM stock), a Cdc2 peptide KVEKIGEGTYGVVYK (100 μM final from a 2.5 mM stock), γ-^33P ATP (10 μCl/μL stock) and water (for a total of 20 μL/well) was added to each well of a Streptavidin Flashplate.
Test compound in 100% DMSO (0.5 μL) was added to the appropriate wells. Diluted c-Src kinase (human) (Accession Number SWISS-PROT P12931) (Upstate Biotechnology, Lake Placid, N.Y.) (diluted in a buffer consisting of 20 mM MOPS at pH 7.0, 1 mM EDTA, β-mercaptoethanol (0.1%), Brij-35 (0.01%), glycerol (5%), and 1 mg/mL bovine serum albumin) (2.5 μL) was added to the wells to initiate the reactions. The reaction plates were incubated at 30° C. for 40 min. The reaction was terminated by the addition of a 3% phosphoric acid solution (5 μL). The reaction product (10 μL) was spotted onto a P30 filtermat and washed for 5 minutes in phosphoric acid (75 mM). The wash sequence was repeated two more times, followed with one final wash in methanol. The plates were then dried, sealed and read on the TopCount scintillation counter after adding 30 μL scintillation fluid.
The c-Src inhibition values were derived using the percent inhibition formula provided in Example 164 and are shown as percent in Table 2 at a test concentration of 2 μM. For those compounds with an IC50, the IC50 value in μM is shown in parentheses. For compounds with multiple test values, each value represents a separate assay result.

T1 sequence (P00533 669-1210 limits assumed): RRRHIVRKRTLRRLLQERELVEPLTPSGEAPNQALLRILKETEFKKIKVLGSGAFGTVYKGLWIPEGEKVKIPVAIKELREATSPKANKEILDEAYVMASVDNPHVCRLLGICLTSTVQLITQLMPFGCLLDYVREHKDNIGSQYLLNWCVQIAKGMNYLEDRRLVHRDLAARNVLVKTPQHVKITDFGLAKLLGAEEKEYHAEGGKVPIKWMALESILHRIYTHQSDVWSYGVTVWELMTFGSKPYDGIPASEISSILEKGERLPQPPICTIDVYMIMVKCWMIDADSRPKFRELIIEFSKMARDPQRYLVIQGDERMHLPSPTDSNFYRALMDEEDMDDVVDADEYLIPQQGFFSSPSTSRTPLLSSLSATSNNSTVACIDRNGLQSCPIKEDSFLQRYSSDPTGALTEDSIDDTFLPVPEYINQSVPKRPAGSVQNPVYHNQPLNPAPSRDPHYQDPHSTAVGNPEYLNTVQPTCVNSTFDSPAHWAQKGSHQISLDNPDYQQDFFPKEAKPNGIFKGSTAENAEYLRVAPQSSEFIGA
T3 sequence (P12931 whole entry): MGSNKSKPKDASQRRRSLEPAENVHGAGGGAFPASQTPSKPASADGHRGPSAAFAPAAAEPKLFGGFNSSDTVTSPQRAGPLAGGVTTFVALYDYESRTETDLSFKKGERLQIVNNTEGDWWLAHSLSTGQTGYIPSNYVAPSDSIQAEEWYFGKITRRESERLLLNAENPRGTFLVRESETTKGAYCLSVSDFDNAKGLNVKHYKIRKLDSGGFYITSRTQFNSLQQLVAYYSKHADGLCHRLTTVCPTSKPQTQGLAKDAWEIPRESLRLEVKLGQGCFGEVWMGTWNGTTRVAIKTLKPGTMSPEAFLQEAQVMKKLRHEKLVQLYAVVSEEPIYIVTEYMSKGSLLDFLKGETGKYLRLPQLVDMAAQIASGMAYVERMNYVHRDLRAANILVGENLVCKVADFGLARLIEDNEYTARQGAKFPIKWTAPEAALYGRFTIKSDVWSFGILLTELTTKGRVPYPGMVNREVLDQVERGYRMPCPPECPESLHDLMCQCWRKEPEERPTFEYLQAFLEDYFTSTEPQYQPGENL
T2 sequence (P04626 679-1255): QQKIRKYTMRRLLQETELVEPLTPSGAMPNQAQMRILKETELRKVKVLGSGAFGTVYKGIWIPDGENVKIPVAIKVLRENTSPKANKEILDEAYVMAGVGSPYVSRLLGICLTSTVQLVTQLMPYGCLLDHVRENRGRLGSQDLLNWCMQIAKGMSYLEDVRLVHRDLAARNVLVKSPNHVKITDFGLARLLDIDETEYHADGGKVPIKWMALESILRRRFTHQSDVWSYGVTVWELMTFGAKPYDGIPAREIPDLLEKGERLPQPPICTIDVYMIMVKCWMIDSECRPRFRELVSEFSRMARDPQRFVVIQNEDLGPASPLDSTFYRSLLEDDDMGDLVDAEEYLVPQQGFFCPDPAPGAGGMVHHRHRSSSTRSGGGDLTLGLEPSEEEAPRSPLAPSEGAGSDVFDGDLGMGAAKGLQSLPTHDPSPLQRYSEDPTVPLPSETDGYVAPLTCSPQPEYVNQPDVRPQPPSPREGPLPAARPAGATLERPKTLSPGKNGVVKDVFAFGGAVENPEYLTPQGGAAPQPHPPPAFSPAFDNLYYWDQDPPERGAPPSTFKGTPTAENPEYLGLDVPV

| SMILES | IC50 (EGFR) [nM] | IC50 (HER-2) [nM] | inhibition at 2 µM (c-Src kinase (human)) [%] | inhibition at 2 µM (EGFR) [%] | inhibition at 1 µM (HER-2) [%] |
| --- | --- | --- | --- | --- | --- |
| CN1CCN(Cc2ccc(NC(=O)c3sc4ncnc5c4c3NC(=O)N5c3ccc(Br)cc3F)cc2)CC1 [Cpd 70, 5-(4-bromo-2-fluoro-phenyl)-4-oxo-4,5-dihydro-3H-1-thia-3,5,6,8-tetraaza-acenaphthylene-2-carboxylic acid [4-(4-methyl-piperazin-1-ylmethyl)-phenyl]-amide] | 330 | 1020 | 43 | – | – |
| O=C(Nc1ccc(NCCCN2CCOCC2)nc1)c1sc2ncnc3c2c1NC(=O)N3c1ccc(Br)cc1F [Cpd 71, 5-(4-bromo-2-fluoro-phenyl)-4-oxo-4,5-dihydro-3H-1-thia-3,5,6,8-tetraaza-acenaphthylene-2-carboxylic acid [6-(3-morpholin-4-yl-propylamino)-pyridin-3-yl]-amide] | 850 | 1760 | 44 | – | – |
| COc1ccc(NC(=O)c2sc3ncnc4c3c2NC(=O)N4c2cc(Cl)ccc2OC)cc1OC [Cpd 73, 5-(5-chloro-2-methoxy-phenyl)-4-oxo-4,5-dihydro-3H-1-thia-3,5,6,8-tetraaza-acenaphthylene-2-carboxylic acid (3,4-dimethoxy-phenyl)-amide] | – | – | -17 | 51 | -14 |
| Cc1ccc(-n2nc(C(C)(C)C)cc2N2C(=O)Nc3c(C(=O)Nc4ccc(CN5CCOCC5)cc4)sc4ncnc2c34)cc1 [Cpd 76, 5-(5-tert-butyl-2-p-tolyl-2H-pyrazol-3-yl)-4-oxo-4,5-dihydro-3H-1-thia-3,5,6,8-tetraaza-acenaphthylene-2-carboxylic acid (4-morpholin-4-ylmethyl-phenyl)-amide] | – | – | 43 | 7 | -11 |
| COc1cc(N2C(=O)Nc3c(C(=O)Nc4ccc(OC)c(OC)c4)sc4ncnc2c34)ccc1Br [Cpd 82, 5-(4-bromo-3-methoxy-phenyl)-4-oxo-4,5-dihydro-3H-1-thia-3,5,6,8-tetraaza-acenaphthylene-2-carboxylic acid (3,4-dimethoxy-phenyl)-amide] | – | > 10000 | 43 | 30 | – |
| COc1ccc(Cl)c(N2C(=O)Nc3c(C(=O)Nc4ccc(OCCN5CCCCC5)c(OC)c4)sc4ncnc2c34)c1 [Cpd 88, 5-(2-chloro-5-methoxy-phenyl)-4-oxo-4,5-dihydro-3H-1-thia-3,5,6,8-tetraaza-acenaphthylene-2-carboxylic acid [3-methoxy-4-(2-piperidin-1-yl-ethoxy)-phenyl]-amide] | – | – | 43 | – | – |
| CN1CCC(NC(=O)c2sc3ncnc4c3c2NC(=O)N4c2ccc(OCc3ccco3)c(Cl)c2)CC1 [Cpd 247, 5-[3-chloro-4-(furan-2-ylmethoxy)-phenyl]-4-oxo-4,5-dihydro-3H-1-thia-3,5,6,8-tetraaza-acenaphthylene-2-carboxylic acid (1-methyl-piperidin-4-yl)-amide] | 249 | 1190 | – | – | – |
| O=C(Nc1ccc(N2C(=O)Nc3c(C(=O)Nc4ccc(CN5CCOCC5)cc4)sc4ncnc2c34)cc1)c1ccccc1 [Cpd 248, 5-(4-benzoylamino-phenyl)-4-oxo-4,5-dihydro-3H-1-thia-3,5,6,8-tetraaza-acenaphthylene-2-carboxylic acid (4-morpholin-4-ylmethyl-phenyl)-amide] | – | > 100000 | – | 8 | – |
| O=C(Nc1ccc(N2C(=O)Nc3c(C(=O)Nc4ccc(CN5CCCCC5)cc4)sc4ncnc2c34)cc1)c1ccccc1 [Cpd 249, 5-(4-benzoylamino-phenyl)-4-oxo-4,5-dihydro-3H-1-thia-3,5,6,8-tetraaza-acenaphthylene-2-carboxylic acid (4-piperidin-1-ylmethyl-phenyl)-amide] | – | > 100000 | – | 9 | – |
| O=C(Nc1ccc(CCN2CCCCC2)cc1)c1sc2ncnc3c2c1NC(=O)N3c1cccc2ccoc12 [Cpd 251, 5-benzofuran-7-yl-4-oxo-4,5-dihydro-3H-1-thia-3,5,6,8-tetraaza-acenaphthylene-2-carboxylic acid [4-(2-piperidin-1-yl-ethyl)-phenyl]-amide] | 141 | 285 | – | – | – |
| CN1CCN(Cc2ccc(NC(=O)c3sc4ncnc5c4c3NC(=O)N5c3ccc(OCc4cccc(F)c4)c(Cl)c3)cc2)CC1 [Cpd 252, 5-[3-chloro-4-(3-fluoro-benzyloxy)-phenyl]-4-oxo-4,5-dihydro-3H-1-thia-3,5,6,8-tetraaza-acenaphthylene-2-carboxylic acid [4-(4-methyl-piperazin-1-ylmethyl)-phenyl]-amide] | 161 | 610 | – | – | – |
| CC1COCC(C)N1Cc1ccc(NC(=O)c2sc3ncnc4c3c2NC(=O)N4c2ccc(Oc3ccccc3)cc2)cc1 (stereo not drawn) [Cpd 253, 4-oxo-5-(4-phenoxy-phenyl)-4,5-dihydro-3H-1-thia-3,5,6,8-tetraaza-acenaphthylene-2-carboxylic acid [4-(3,5-dimethyl-morpholin-4-ylmethyl)-phenyl]-amide] | 120 | 344 | – | – | – |
| O=C(Nc1ccc(CN2CCCC(CO)C2)cc1)c1sc2ncnc3c2c1NC(=O)N3c1ccc(Oc2ccccc2)cc1 (stereo not drawn) [Cpd 256, 4-oxo-5-(4-phenoxy-phenyl)-4,5-dihydro-3H-1-thia-3,5,6,8-tetraaza-acenaphthylene-2-carboxylic acid [4-(3-hydroxymethyl-piperidin-1-ylmethyl)-phenyl]-amide] | 321 | 450 | – | – | – |

Now from value to compound:

| IC50 (EGFR) [nM] | IC50 (HER-2) [nM] | inhibition at 2 µM (c-Src kinase (human)) [%] | inhibition at 2 µM (EGFR) [%] | inhibition at 1 µM (HER-2) [%] | SMILES |
| --- | --- | --- | --- | --- | --- |
| 23 | 85 | – | – | – | O=C(Nc1ccc(CN2CCCCC2)cc1)c1sc2ncnc3c2c1NC(=O)N3c1ccc(OCc2ccco2)c(Cl)c1 [Cpd 244, 5-[3-chloro-4-(furan-2-ylmethoxy)-phenyl]-4-oxo-4,5-dihydro-3H-1-thia-3,5,6,8-tetraaza-acenaphthylene-2-carboxylic acid (4-piperidin-1-ylmethyl-phenyl)-amide] |
| 22 | 47 | – | – | – | COc1cc(NC(=O)c2sc3ncnc4c3c2NC(=O)N4c2ccc(OCc3ccco3)c(Cl)c2)ccc1CN1CCOCC1 [Cpd 246, 5-[3-chloro-4-(furan-2-ylmethoxy)-phenyl]-4-oxo-4,5-dihydro-3H-1-thia-3,5,6,8-tetraaza-acenaphthylene-2-carboxylic acid (3-methoxy-4-morpholin-4-ylmethyl-phenyl)-amide] |
| 26 | 68 | – | – | – | O=C(Nc1ccc(CN2CCC(CO)CC2)cc1)c1sc2ncnc3c2c1NC(=O)N3c1ccc(Oc2ccccc2)cc1 [Cpd 254, 4-oxo-5-(4-phenoxy-phenyl)-4,5-dihydro-3H-1-thia-3,5,6,8-tetraaza-acenaphthylene-2-carboxylic acid [4-(4-hydroxymethyl-piperidin-1-ylmethyl)-phenyl]-amide] |
| 41 | 24 | – | – | – | CC1CCN(Cc2ccc(NC(=O)c3sc4ncnc5c4c3NC(=O)N5c3ccc(Oc4ccccc4)cc3)cc2)CC1 [Cpd 255, 4-oxo-5-(4-phenoxy-phenyl)-4,5-dihydro-3H-1-thia-3,5,6,8-tetraaza-acenaphthylene-2-carboxylic acid [4-(4-methyl-piperidin-1-ylmethyl)-phenyl]-amide] |
| 53 | 58 | – | – | – | CC(C)(C)OC(=O)NC1CCN(Cc2ccc(NC(=O)c3sc4ncnc5c4c3NC(=O)N5c3ccc(Oc4ccccc4)cc3)cc2)CC1 [Cpd 258, [1-(4-{[4-oxo-5-(4-phenoxy-phenyl)-4,5-dihydro-3H-1-thia-3,5,6,8-tetraaza-acenaphthylene-2-carbonyl]-amino}-benzyl)-piperidin-4-yl]-carbamic acid tert-butyl ester] |
| 37 | 28 | – | – | – | CN(C)C1CCN(Cc2ccc(NC(=O)c3sc4ncnc5c4c3NC(=O)N5c3ccc(Oc4ccccc4)cc3)cc2)CC1 [Cpd 260, 4-oxo-5-(4-phenoxy-phenyl)-4,5-dihydro-3H-1-thia-3,5,6,8-tetraaza-acenaphthylene-2-carboxylic acid [4-(4-dimethylamino-piperidin-1-ylmethyl)-phenyl]-amide] |
